According to ChEMBL document CHEMBL1137710, “Synthesis and in vitro antitumor activity of new quinoxaline derivatives” (2009):

Assays:
Format in all cases: functional
NCI-H460 = test: Anticancer activity against human NCI-H460 cells assessed as cell growth at 100 uM after 48 hrs by sulforhodamine B assay; details: NCI-H460, 48 h, read-out: Activity
SF-268 = test: Anticancer activity against human SF268 cells assessed as cell growth at 100 uM after 48 hrs by sulforhodamine B assay; details: SF-268, 48 h, read-out: Activity
MCF7 = test: Anticancer activity against human MCF7 cells assessed as cell growth at 100 uM after 48 hrs by sulforhodamine B assay; details: MCF7, 48 h, read-out: Activity

SMILES	growth at 100 µM (NCI-H460)	growth at 100 µM (SF-268)	growth at 100 µM (MCF7)
COc1ccc(Oc2nc3cc(N)cc(N)c3nc2-c2ccccc2)cc1OC	118%	131%	117%
COc1ccc(Sc2nc3cc(N)cc(N)c3nc2-c2ccccc2)cc1OC	119%	136%	121%
